Legend:
CSN^ΔCSNAP complex = test: Peptide array screen of C-CSNAP peptides with rCSN^ΔCSNAP; format: binding; settings: average of 5 experiments;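 also: Array-printed peptides incubated with 0.5 µM CSN^ΔCSNAP, bound complex detected by anti-CSN3 antibody plus HRP-linked secondary, spot intensity expressed relative to the parent reference peptide spot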
recombinant CSN complex = test: Peptide array screen of C-CSNAP peptides with recombinant CSN (rCSN^WT); format: binding; settings: for Average fold change: peptide array with rCSN, average of 3 experiments, left and right (n = 6), fold of C-CSNAP (A1); for Average fold change, intensities as fold of C-CSNAP (A1): rCSN^WT on INTAVIS Celluspots array, anti-CSN3 and HRP secondary antibody, average of six replicates (three independent experiments in duplicates);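 as to all read-outs here: densitometric signal of CSN bound to each synthesized peptide spot, with an antibody-only array lacking CSN run to exclude non-specific binding, higher values meaning stronger binding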
Method: To generate an optimized C-CSNAP peptide, we used the peptide array methodology. The array was designed to screen for the optimal peptide length, sequence, and stability (Fig 3A). A recombinant CSN complex was expressed, purified, and screened for binding to the peptide array by using an anti-CSN3 antibody. To rule out non-specific binding of the probing antibody, a control experiment was carried out without the addition of the CSN complex (Fig 3A right panel).
C-CSNAP peptide and its derivatives were synthesized on a microarray. The array was blocked and incubated with or without the COP9 signalosome complex (CSN) and probed using an anti-CSN3 antibody and HRP-conjugated secondary antibody. To assess non-specific binding of the antibodies to the array, anti-CSN3 and anti-GAR–HRP were used without the addition of the CSN. Signal intensity of each spot was measured and normalized to the intensity of the spot of C-CSNAP (A1). Measured values for each spot were averaged from six arrays and plotted with SEM. […] (A) A representative image of the peptide array (left) and the background (right). (B) Elongation of the C-terminal 16 amino acids (green) with one residue at a time based on the full-length sequence. […] (F) Single D-amino acid substitution at various positions.
Intensity values are normalized to the intensity of the 16AA C-CSNAP peptide (A1) on each array from three independent experiments in duplicates, and averages from the six replicates are calculated with SEM.
Optimization of C-CSNAP sequence for enhanced binding to recombinant CSN^ΔCSNAP was screened by printing the modified sequences of CSNAP or C-CSNAP (Phe to Trp, Asp to Glu, Ala screen, D-amino acid screen, N-α-methylation, and Aib incorporation on INTAVIS Celluspots array [2 × 384spots]). The array was blocked with 5% skim milk in TBS-0.5% Tween 20 (TBS-T) for 4 h at room temperature, washed three times in TBS-T, and then incubated with 0.5 μM CSN^ΔCSNAP in 5% milk–TBS-T. Bound CSN^ΔCSNAP was visualized by incubating with anti-CSN3 (ab79698) antibody (1:10,000, overnight) and goat-anti-rabbit-HRP secondary antibody (1:10,000, 1 h).

[1] = peptide array, rCSN^ΔCSNAP, left and right spots
[2] = peptide array with rCSN^ΔCSNAP, left and right (n = 10), fold of C-CSNAP (A1)

Row | Substance | Average fold change (CSN^ΔCSNAP complex; [1]) | Average fold change, intensities as fold of C-CSNAP (A1) (recombinant CSN complex) | other results
1 | EFFNEFEELFEDEEIQ [D42,46,49,52,54,55E] | 1.1157 fold of C-CSNAP (A1) |  | Average fold change (recombinant CSN complex): 0.2605 fold
2 | DFFNEFEELFEDEEIQ [D46,49,52,54,55E] | 1.2301 fold of C-CSNAP (A1) |  | Average fold change (recombinant CSN complex): 0.5968 fold
3 | DFFNDFEDLFEEDDIQ [E 1, C-CSNAP, Asp to Glu substitution D52,53E] | 1.1244 fold of C-CSNAP (A1) | 0.6914 fold of C-CSNAP (A1) | 
4 | DFFNEFEELFDEEEIQ [D46,49,53,54,55E] | 1.4630 fold of C-CSNAP (A1) |  | Average fold change (recombinant CSN complex): 0.6202 fold
5 | DFFNEFEDLFDDEDIQ [Position D19, C-CSNAP, Asp to Glu substitution D46,54E] | 1.1127 fold of C-CSNAP (A1) | 0.6165 fold of C-CSNAP (A1) | 
6 | EFFNDFEELFDDDDIQ [Position D11, C-CSNAP, Asp to Glu substitution D42,49E] | 1.0773 fold of C-CSNAP (A1) | 0.8480 fold of C-CSNAP (A1) | 
7 | DWFNDFEDLFDDDDIQ [Position C12, C-CSNAP, Phe to Trp substitution F43W] | 1.2910 fold of C-CSNAP (A1) | 0.7756 fold of C-CSNAP (A1) | 
8 | AANEKAVHADFFNDFEDLFDDDDIQ [Position A10, CSNAP residues 33-57] |  | 1.0826 fold of C-CSNAP (A1) | Average fold change (CSN^ΔCSNAP complex; [2]): 0.9871 fold
9 | DFFNDFEDLFEDDDIQ [D 6, C-CSNAP, Asp to Glu substitution D52E] | 1.1581 fold of C-CSNAP (A1) | 0.9809 fold of C-CSNAP (A1) | 
10 | DFFNDFEDLFEEDEIQ [D52,53,55E] | 1.3267 fold of C-CSNAP (A1) |  | Average fold change (recombinant CSN complex): 0.6917 fold
11 | DFFNEFEELFDEDDIQ [Position E14, C-CSNAP, Asp to Glu substitution D46,49,53E] | 0.9920 fold of C-CSNAP (A1) | 0.6197 fold of C-CSNAP (A1) | 
12 | DFF-Aib-DFED-Aib-FDDDI-Aib-Q [Position H16, C-CSNAP with Aib incorporation (45,50,56)] |  | 0.4930 fold of C-CSNAP (A1) | Average fold change, intensities as fold of C-CSNAP (A1) (CSN^ΔCSNAP complex; [1]): 0.8483 fold; intensities as fold of C-CSNAP (A1), Experiment #1 left (recombinant CSN complex; rCSN^WT peptide array, replicate: Experiment #1, left array): 0.3868 fold of C-CSNAP (A1); intensities as fold of C-CSNAP (A1), Experiment #1 right (recombinant CSN complex; rCSN^WT peptide array, replicate: Experiment #1, right array): 0.3074 fold of C-CSNAP (A1); intensities as fold of C-CSNAP (A1), Experiment #2 left (recombinant CSN complex; rCSN^WT peptide array, replicate: Experiment #2, left array): 0.3253 fold of C-CSNAP (A1); intensities as fold of C-CSNAP (A1), Experiment #2 right (recombinant CSN complex; rCSN^WT peptide array, replicate: Experiment #2, right array): 0.4113 fold of C-CSNAP (A1); intensities as fold of C-CSNAP (A1), Experiment #3 left (recombinant CSN complex; rCSN^WT peptide array, replicate: Experiment #3, left array): 0.4290 fold of C-CSNAP (A1); intensities as fold of C-CSNAP (A1), Experiment #3 right (recombinant CSN complex; rCSN^WT peptide array, replicate: Experiment #3, right array): 1.0982 fold of C-CSNAP (A1)
13 | GPYVDLDEAGGSTGLLMDLAANEKAVHADFFNDFEDLFDDDDIQ [B 5, CSNAP residues 14-57] |  | 1.1075 fold of C-CSNAP (A1) | Average fold change (CSN^ΔCSNAP complex; [2]): 0.9816 fold
14 | VHADFFNDFEDLFDDDDIQ [A 4, CSNAP residues 39-57] |  | 1.1190 fold of C-CSNAP (A1) | Average fold change (CSN^ΔCSNAP complex; [2]): 0.9552 fold
15 | DFFNDFEDLWDDDDIQ [Position C15, C-CSNAP, Phe to Trp substitution F51W] | 1.0302 fold of C-CSNAP (A1) | 0.8159 fold of C-CSNAP (A1) | 
16 | DFFNDFEELFEEDDIQ [Position E17, C-CSNAP, Asp to Glu substitution D49,52,53E] | 1.2373 fold of C-CSNAP (A1) | 0.6206 fold of C-CSNAP (A1) | 
17 | DFFNDFEDLFDDDDAQ [Position C10, C-CSNAP, Ala substitution I56A] |  | 1.1392 fold of C-CSNAP (A1) | Average fold change (CSN^ΔCSNAP complex; [2]): 1.2151 fold
18 | DLAANEKAVHADFFNDFEDLFDDDDIQ [Position A12, CSNAP residues 31-57] |  | 0.9978 fold of C-CSNAP (A1) | Average fold change (CSN^ΔCSNAP complex; [2]): 1.0405 fold
19 | DWWNDFEDLFDDDDIQ [Position C16, C-CSNAP, Phe to Trp substitution F43,44W] | 1.3233 fold of C-CSNAP (A1) | 0.7427 fold of C-CSNAP (A1) | 
20 | DFFNDFEELFDEDDIQ [Position D22, C-CSNAP, Asp to Glu substitution D49,53E] | 1.3252 fold of C-CSNAP (A1) | 0.6642 fold of C-CSNAP (A1) | 
21 | EFFNDFEELFDDEDIQ [Position E11, C-CSNAP, Asp to Glu substitution D42,49,54E] | 0.8932 fold of C-CSNAP (A1) | 0.6850 fold of C-CSNAP (A1) | 
22 | STGLLMDLAANEKAVHADFFNDFEDLFDDDDIQ [Position A18, CSNAP residues 25-57] |  | 0.9600 fold of C-CSNAP (A1) | Average fold change (CSN^ΔCSNAP complex; [2]): 1.3562 fold
23 | DFFNEFEELFEEDEIQ [D46,49,52,53,55E] | 1.1600 fold of C-CSNAP (A1) |  | Average fold change (recombinant CSN complex): 0.5677 fold

Row | Substance | Average fold change (CSN^ΔCSNAP complex; [1]) | Average fold change, intensities as fold of C-CSNAP (A1) (recombinant CSN complex) | other results
24 | DFFNDFEDLFDDDEIQ [D 9, C-CSNAP, Asp to Glu substitution D55E] | 1.0696 fold of C-CSNAP (A1) | 1.0265 fold of C-CSNAP (A1) | 
25 | DFFNDWEDLFDDDDIQ [Position C14, C-CSNAP, Phe to Trp substitution F47W] | 1.1204 fold of C-CSNAP (A1) | 0.9440 fold of C-CSNAP (A1) | 
26 | DFFNEFEELFEDDDIQ [Position E13, C-CSNAP, Asp to Glu substitution D46,49,52E] | 1.2426 fold of C-CSNAP (A1) | 0.6592 fold of C-CSNAP (A1) | 
27 | EFFNEFEDLFEDDDIQ [E 5, C-CSNAP, Asp to Glu substitution D42,46,52E] | 1.0465 fold of C-CSNAP (A1) | 0.8794 fold of C-CSNAP (A1) | 
28 | DFFNEFEELFEDDEIQ [D46,49,52,55E] | 1.1176 fold of C-CSNAP (A1) |  | Average fold change (recombinant CSN complex): 0.6253 fold
29 | EFFNDFEELFEEDDIQ [D42,49,52,53E] | 0.8283 fold of C-CSNAP (A1) |  | Average fold change (recombinant CSN complex): 0.7257 fold
30 | DWFNDFEDLWDDDDIQ [Position C18, C-CSNAP, Phe to Trp substitution F43,51W] | 1.2485 fold of C-CSNAP (A1) | 0.5534 fold of C-CSNAP (A1) | 
31 | EFFNEFEDLFDDEDIQ [E 7, C-CSNAP, Asp to Glu substitution D42,46,54E] | 1.1480 fold of C-CSNAP (A1) | 0.6639 fold of C-CSNAP (A1) | 
32 | EFFNEFEDLFDDDEIQ [E 8, C-CSNAP, Asp to Glu substitution D42,46,55E] | 0.9227 fold of C-CSNAP (A1) | 0.7616 fold of C-CSNAP (A1) | 
33 | EFFNDFEDLFDDEDIQ [Position D14, C-CSNAP, Asp to Glu substitution D42,54E] | 1.0310 fold of C-CSNAP (A1) | 0.7060 fold of C-CSNAP (A1) | 
34 | DWFNDWEDLWDDDDIQ [Position C23, C-CSNAP, Phe to Trp substitution F43,47,51W] | 0.6854 fold of C-CSNAP (A1) | 0.4941 fold of C-CSNAP (A1) | 
35 | EFFNDFEDLFDDDEIQ [Position D15, C-CSNAP, Asp to Glu substitution D42,55E] | 1.0098 fold of C-CSNAP (A1) | 0.7777 fold of C-CSNAP (A1) | 
36 | DFFNEFEELFEEEEIQ [D46,49,52,53,54,55E] | 1.0133 fold of C-CSNAP (A1) |  | Average fold change (recombinant CSN complex): 0.5470 fold
37 | EFFNEFEDLFEDDDIQ [Position D12, C-CSNAP, Asp to Glu substitution D42,52E] | 1.0147 fold of C-CSNAP (A1) | 0.7025 fold of C-CSNAP (A1) | 
38 | DFFNEFEDLFEDDDIQ [Position D17, C-CSNAP, Asp to Glu substitution D46,52E] | 1.1441 fold of C-CSNAP (A1) | 0.7655 fold of C-CSNAP (A1) | 
39 | EFFNEFEELFEEEDIQ [D42,46,49,52,53, 54E] | 0.9285 fold of C-CSNAP (A1) |  | Average fold change (recombinant CSN complex): 0.5691 fold
40 | LLMDLAANEKAVHADFFNDFEDLFDDDDIQ [Position A15, CSNAP residues 28-57] |  | 0.9771 fold of C-CSNAP (A1) | Average fold change (CSN^ΔCSNAP complex; [2]): 1.2034 fold
41 | DFFNDFEELFEEDEIQ [D49,52,53,55E] | 1.1749 fold of C-CSNAP (A1) |  | Average fold change (recombinant CSN complex): 0.6996 fold
42 | EGAGPYVDLDEAGGSTGLLMDLAANEKAVHADFFNDFEDLFDDDDIQ [B 8, CSNAP residues 11-57] |  | 0.8775 fold of C-CSNAP (A1) | Average fold change (CSN^ΔCSNAP complex; [2]): 0.9764 fold
43 | ADFFNDFEDLFDDDDIQ [A 2, CSNAP residues 41-57] |  | 0.9705 fold of C-CSNAP (A1) | Average fold change (CSN^ΔCSNAP complex; [2]): 0.9058 fold
44 | EFFNDFEELFEDDDIQ [E 9, C-CSNAP, Asp to Glu substitution D42,49,52E] | 1.0112 fold of C-CSNAP (A1) | 0.6782 fold of C-CSNAP (A1) | 
45 | EFFNEFEELFDEDDIQ [D42,46,49,53E] | 1.2266 fold of C-CSNAP (A1) |  | Average fold change (recombinant CSN complex): 0.3807 fold

— article PMC10355216, “The C-terminal tail of CSNAP attenuates the CSN complex” (Life Science Alliance, 2023)
